Laboratory results reported in ChEMBL document CHEMBL4118240, “'Tethering' fragment-based drug discovery to identify inhibitors of the essential respiratory membrane protein type II NADH dehydrogenase” (Bioorg Med Chem Lett, 2018).

What was measured:
[1] = Inhibition of C-terminal His-tagged Caldalkalibacillus thermarum TA2.A1 NDH2 R382C mutant preincubated for 1 hr followed by NADH addition measured after 8 mins
[2] = Inhibition of C-terminal His-tagged Caldalkalibacillus thermarum TA2.A1 NDH2 R347C mutant preincubated for 1 hr followed by NADH addition measured after 8 mins
[3] = Inhibition of wild type Caldalkalibacillus thermarum TA2.A1 NDH2 preincubated for 1 hr followed by NADH addition measured after 8 mins
[4] = tested on: Caldalkalibacillus thermarum TA2.A1; experiment: Selectivity ratio of IC50 for wild type Caldalkalibacillus thermarum TA2.A1 NDH2 to IC50 for C-terminal His-tagged Caldalkalibacillus thermarum TA2.A1 NDH2 R347C mutant
[5] = tested on: Caldalkalibacillus thermarum TA2.A1; experiment: Selectivity ratio of IC50 for wild type Caldalkalibacillus thermarum TA2.A1 NDH2 to IC50 for C-terminal His-tagged Caldalkalibacillus thermarum TA2.A1 NDH2 R382C mutant

| SMILES | IC50 [1] [µM] | IC50 [2] [µM] | IC50 [3] [µM] | Ratio IC50 [4] | Ratio IC50 [5] |
| --- | --- | --- | --- | --- | --- |
| CN(C)CCSSCCn1cc(-c2ccc(N(C)C)cc2)nn1 | 24 | 56.8 | 147 | 3.6 | 3.6 |
| CN1CCN(CCCN2c3ccccc3Sc3ccc(C(F)(F)F)cc32)CC1 [TRIFLUOPERAZINE] | – | – | 50 | – | – |
| CN(C)CCSSCCNC(=O)c1cccc2cc[nH]c12 | 32.6 | 110 | 61.9 | 0.9 | 0.9 |
| NCCSSCCNC(=O)C1CCN(C(=O)c2ccc3ncsc3c2)CC1 | 18.6 | 9.9 | 52 | 3.7 | 3.7 |
| CN(C)CCSSCCNC(=O)[C@H]1CCCN(C(=O)c2ccc(-n3cccc3)cc2)C1 | 26.9 | 26.5 | 80.3 | 3 | 3 |

Stronger by IC50 [3], values ahead:

| IC50 [1] [µM] | IC50 [2] [µM] | IC50 [3] [µM] | Ratio IC50 [4] | Ratio IC50 [5] | SMILES |
| --- | --- | --- | --- | --- | --- |
| 3.2 | 5.9 | 42.2 | 9.3 | 9.3 | CN(C)CCSSCCNC(=O)CCC(=O)c1ccccn1 |
| 13 | 21.9 | 11.3 | 0.6 | 0.6 | CN(C)CCSSCCNC(=O)[C@H]1CCCN(C(=O)c2cc3cccc(O)c3cc2O)C1 |
| 6.3 | 5.9 | 5.6 | 0.9 | 0.9 | CN(C)CCSSCCNC(=O)c1ccc(C#Cc2ccccc2)o1 |
| 33.5 | 60.8 | 38.1 | 0.8 | 0.8 | CN(C)CCSSCCNC(=O)c1c(N)cccc1Cl |
| 7 | 12.9 | 12.8 | 1.3 | 1.3 | CN(C)CCSSCCNC(=O)C(CC(=O)c1ccccc1)c1cc2ccccc2n1C (stereo unspecified) |
| 11.5 | 14.5 | 36 | 2.8 | 2.8 | CN(C)CCSSCCCNC(=O)c1cccc(N(C)C)c1 |
